Reference: patent publication US5045559A, “Treatment of skin disorders” (priority 1988, dated 1991)
Read-outs that look alike come from different tables or passages of the source.

Legend:
[1] = In vitro delivery of pyroglutamic acid to stratum corneum of the rat (tritiated esters on newborn rat skin, resistant to 2 h water washing); format: in vitro ADME
Description: In vitro evidence to confirm delivery of pyroglutamic acid to stratum corneum of the rat
In an in vitro laboratory test, esters of pyroglutamic acid labelled with ^3 H on the pyroglutamic acid residue were applied as a 1% by weight solution in ethanol to newborn rat skin held in a glass cell, allowing the dermal side of the skin to be bathed in a buffered salts solution while the epidermal surface was exposed to normal atmospheric conditions. After 24 hours, samples of skin were taken and washed with continuous agitation in several charges of water at room temperature.
Interfollicular epidermis was removed from these skin pieces by "freeze scraping"-which avoids contamination of the sample by follicular tissue or material trapped within the hair follicle. The epidermis was then extracted in methanol and the soluble extract analysed by column chromatography. The amount of tritiated pyroglutamic acid present in the epidermis in a form resistant to a period of 2 hours continuous washing with water was measured. The quantity of tritiated pyroglutamic acid delivered and retained by the skin in this way is recorded in Table 1 below: […]

[2] = In vivo delivery to human stratum corneum (tritiated esters applied to arms of volunteers, tape stripping); conditions: 18 hours; for Pyroglutamic acid delivered, Ethanol base: 1% w/v in anhydrous ethanol; for Pyroglutamic acid delivered, Cream base: 1% w/v in oil-in-water emulsion base
From the text: Accordingly, [^3 H] esters of pyroglutamic acid were each dissolved at 1% w/v in anhydrous ethanol or in an oil-in-water emulsion base. […] The [^3 H] pyroglutamic acid was separated from unchanged ester by chromotography on AG1X8 resin and the amount delivered to the skin expressed as nmoles per mg of stratum corneum protein.

Structure (SMILES) | Pyroglutamic acid delivered [1] [n moles/cm^2 skin] | Pyroglutamic acid delivered, Ethanol base [2] [n mol/mg protein] | Pyroglutamic acid delivered, Cream base [2] [n mol/mg protein] | other results
CCCCCCOC(=O)[C@@H]1CCC(=O)N1 [Pyroglutamic acid, n-hexyl ester, pyroglutamic acid n-hexyl ester] | 32 ± 10 | 5 | 2 | –
CCOC(=O)[C@@H]1CCC(=O)N1 [Pyroglutamic acid, ethyl ester, pyroglutamic acid ethyl ester] | – | 8 | 5 | Pyroglutamic acid delivered ([1]; 1% by weight in ethanol, newborn rat skin, 24 hours, resistant to 2 hours continuous washing with water): 18 ± 5 n moles/cm^2 skin
CCCOC(=O)[C@@H]1CCC(=O)N1 [Pyroglutamic acid, n-propyl ester, pyroglutamic acid n-propyl ester] | 21 ± 8 | – | – | –
CCCCOC(=O)[C@@H]1CCC(=O)N1 [Pyroglutamic acid, n-butyl ester, pyroglutamic acid n-butyl ester] | 17 ± 8 | 6 | 2 | –
CCCCCCCCCCCCOC(=O)[C@@H]1CCC(=O)N1 [Dodecyl, pyroglutamic acid n-dodecyl ester] | – | 4 | 1 | –
COC(=O)[C@@H]1CCC(=O)N1 [Pyroglutamic acid, methyl ester, pyroglutamic acid methyl ester] | 17 ± 5 | – | – | –
CCCCCCCCOC(=O)[C@@H]1CCC(=O)N1 [Pyroglutamic acid, n-octyl ester, pyroglutamic acid n-octyl ester] | 36 ± 7 | 4 | 1 | delivery to the stratum corneum of pyroglutamic acid which resisted washing out with water (in words) [1]: best result
O=C1CCC(C(=O)O)N1 (stereo not shown) [pyroglutamic acid, 2-pyrrolidone-5-carboxylic acid, reference compound] | – | – | – | amount recovered from / reaching the stratum corneum following topical application (in words) [2]: little pyroglutamic acid reached the stratum corneum if applied as the free acid; amount recovered from / reaching the stratum corneum following topical application (in words) ([2]; listed as [^3 H] pyroglutamic acid): negligible amount
